In patent publication US20260285855A1, “HETEROARYL DERIVATIVES AS DDRS INHIBITORS” (CHIESI FARMACEUTICI S.P.A., priority 2023, published 2026):

Legend:
DDR1 = target: T1, DDR1 (Homo sapiens, UniProt Q08345); test: LanthaScreen Europium Kinase Binding assay, DDR1; details: 5 nM DDR1, 20 nM Kinase Tracer 178, 1 h at rt; Ki from IC50 by Cheng-Prusoff; read-out: Ki DDR1
T1 construct: purchased Carna Biosciences
Procedure: (§1) DDR1 and DDR2 binding assays were performed using Life Technologies LanthaScreen™ Europium Kinase Binding assay. […] IC50 values were determined in GraphPad Prism 7.0 software, using 4 parameter model: log (inhibitor) vs. response. IC50 values were converted in Ki using the Cheng-Prusoff equation (Ki-IC50/(1+ [Tracer]/Kd).

DDR2 = target: T2, DDR2 (Homo sapiens, UniProt Q16832); test: LanthaScreen Europium Kinase Binding assay, DDR2; details: 5 nM DDR2, 10 nM Kinase Tracer 178, 1 h at rt; Ki from IC50 by Cheng-Prusoff; read-out: Ki DDR2
T2 construct: purchased Life Technologies
T2 sequence (Q16832 22-855): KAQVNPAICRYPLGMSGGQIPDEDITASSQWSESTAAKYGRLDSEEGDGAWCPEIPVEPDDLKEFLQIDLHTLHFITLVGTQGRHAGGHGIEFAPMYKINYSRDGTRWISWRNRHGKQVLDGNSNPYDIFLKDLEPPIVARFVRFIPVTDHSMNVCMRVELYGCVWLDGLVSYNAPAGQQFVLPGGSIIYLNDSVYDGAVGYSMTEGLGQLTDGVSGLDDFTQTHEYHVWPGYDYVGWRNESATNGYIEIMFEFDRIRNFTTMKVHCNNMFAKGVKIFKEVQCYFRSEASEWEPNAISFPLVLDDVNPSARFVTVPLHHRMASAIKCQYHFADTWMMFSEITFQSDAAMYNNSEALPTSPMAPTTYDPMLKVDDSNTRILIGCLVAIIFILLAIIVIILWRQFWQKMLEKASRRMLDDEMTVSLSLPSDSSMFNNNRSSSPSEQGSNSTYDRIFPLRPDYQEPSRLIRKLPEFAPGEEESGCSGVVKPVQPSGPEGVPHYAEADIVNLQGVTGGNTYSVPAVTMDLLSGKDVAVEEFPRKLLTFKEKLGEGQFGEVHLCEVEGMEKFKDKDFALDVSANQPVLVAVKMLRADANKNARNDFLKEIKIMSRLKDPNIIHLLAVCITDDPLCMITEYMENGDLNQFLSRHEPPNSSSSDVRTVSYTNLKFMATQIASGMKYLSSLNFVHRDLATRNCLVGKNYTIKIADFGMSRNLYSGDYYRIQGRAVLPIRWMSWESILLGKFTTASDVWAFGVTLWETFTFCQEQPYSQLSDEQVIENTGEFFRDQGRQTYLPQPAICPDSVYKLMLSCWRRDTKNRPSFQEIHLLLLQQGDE
Procedure: as §1

T1 sequence (Q08345 19-913): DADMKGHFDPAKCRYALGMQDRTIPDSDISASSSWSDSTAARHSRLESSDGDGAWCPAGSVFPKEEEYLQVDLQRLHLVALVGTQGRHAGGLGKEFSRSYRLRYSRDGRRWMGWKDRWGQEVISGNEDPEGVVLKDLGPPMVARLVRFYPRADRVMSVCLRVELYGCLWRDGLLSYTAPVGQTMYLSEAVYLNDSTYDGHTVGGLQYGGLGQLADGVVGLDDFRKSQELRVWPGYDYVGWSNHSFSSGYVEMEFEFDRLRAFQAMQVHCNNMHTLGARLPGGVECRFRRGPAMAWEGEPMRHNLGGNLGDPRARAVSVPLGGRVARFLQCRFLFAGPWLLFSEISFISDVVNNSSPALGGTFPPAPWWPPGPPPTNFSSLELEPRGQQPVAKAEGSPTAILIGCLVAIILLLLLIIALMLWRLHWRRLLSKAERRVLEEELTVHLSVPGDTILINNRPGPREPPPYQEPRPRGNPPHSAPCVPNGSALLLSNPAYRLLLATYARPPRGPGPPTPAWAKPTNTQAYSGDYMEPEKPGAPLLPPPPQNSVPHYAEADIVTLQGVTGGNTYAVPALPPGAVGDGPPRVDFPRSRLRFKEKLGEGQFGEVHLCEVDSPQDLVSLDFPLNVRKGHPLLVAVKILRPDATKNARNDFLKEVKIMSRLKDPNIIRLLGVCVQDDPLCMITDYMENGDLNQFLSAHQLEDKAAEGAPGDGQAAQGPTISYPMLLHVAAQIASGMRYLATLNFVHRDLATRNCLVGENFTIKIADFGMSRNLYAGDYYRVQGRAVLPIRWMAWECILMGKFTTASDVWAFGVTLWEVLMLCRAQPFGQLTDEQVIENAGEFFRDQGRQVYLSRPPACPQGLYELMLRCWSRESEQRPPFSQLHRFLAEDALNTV

Row | SMILES | Ki (DDR1) | Ki (DDR2)
1 | CN(C(=O)Nc1cc(C(F)(F)F)ccn1)C1CC2(C1)CN(C(=O)c1ncnc3ccsc13)C2 [Example 263, 1-methyl-1-(2-(thieno[3,2-d]pyrimidine-4-carbonyl)-2-azaspiro[3.3]heptan-6-yl)-3-(4-(trifluoromethyl)pyridin-2-yl)urea] | < 5 nM | 5 to 25 nM
2 | CCc1ccc(C(F)(F)F)cc1NC(=O)N(C)C1CC2(C1)CN(C(=O)c1cnn3ccn(C)c13)C2 [Example 264, 3-(2-ethyl-5-(trifluoromethyl)phenyl)-1-methyl-1-(2-(1-methyl-1H-imidazo[1,2-b]pyrazole-7-carbonyl)-2-azaspiro[3.3]heptan-6-yl)urea] | < 5 nM | 5 to 25 nM
3 | Cc1c(F)cc(NC(=O)N(C)C2CC3(C2)CN(C(=O)c2cnn4ccn(C)c24)C3)cc1C(F)(F)F [Example 265, 3-(3-fluoro-4-methyl-5-(trifluoromethyl)phenyl)-1-methyl-1-(2-(1-methyl-1H-imidazo[1,2-b]pyrazole-7-carbonyl)-2-azaspiro[3.3]heptan-6-yl)urea] | < 5 nM | < 5 nM
4 | CN(C(=O)Nc1cncc(C(F)(F)C(F)(F)F)c1)C1CC2(C1)CN(C(=O)c1cnn3ccn(C)c13)C2 [Example 266, 1-methyl-1-(2-(1-methyl-1H-imidazo[1,2-b]pyrazole-7-carbonyl)-2-azaspiro[3.3]heptan-6-yl)-3-(5-(perfluoroethyl)pyridin-3-yl)urea] | < 5 nM | 5 to 25 nM
5 | CN(C(=O)Nc1cc(C(F)(F)F)cc(Cl)n1)C1CC2(C1)CN(C(=O)c1cnn3ccn(C)c13)C2 [Example 267, 3-(6-chloro-4-(trifluoromethyl)pyridin-2-yl)-1-methyl-1-(2-(1-methyl-1H-imidazo[1,2-b]pyrazole-7-carbonyl)-2-azaspiro[3.3]heptan-6-yl)urea] | < 5 nM | < 5 nM
6 | Cc1cc(NC(=O)N(C)C2CC3(C2)CN(C(=O)c2ncnc4[nH]ccc24)C3)cc(C(F)(F)F)c1 [Example 268, 1-(2-(7H-pyrrolo[2,3-d]pyrimidine-4-carbonyl)-2-azaspiro[3.3]heptan-6-yl)-1-methyl-3-(3-methyl-5-(trifluoromethyl)phenyl)urea] | < 5 nM | 5 to 25 nM
7 | Cc1ccc(C(F)(F)F)cc1NC(=O)OC1CC2(C1)CN(C(=O)c1cnn3ccn(C)c13)C2 [Example 270, 2-(1-methyl-1H-imidazo[1,2-b]pyrazole-7-carbonyl)-2-azaspiro[3.3]heptan-6-yl(2-methyl-5-(trifluoromethyl)phenyl)carbamate] | < 5 nM | < 5 nM
8 | Cn1ccn2ncc(C(=O)N3CC4(CC(OC(=O)Nc5cc(C(C)(C)C(F)(F)F)on5)C4)C3)c12 [Example 271, 2-(1-methyl-1H-imidazo[1,2-b]pyrazole-7-carbonyl)-2-azaspiro[3.3]heptan-6-yl(5-(1,1,1-trifluoro-2-methylpropan-2-yl)isoxazol-3-yl)carbamate] | < 5 nM | < 5 nM
9 | O=C(Nc1cc(OC(F)(F)F)ccn1)OC1CC2(C1)CN(C(=O)c1cnn3ccsc13)C2 [Example 272, 2-(pyrazolo[5,1-b]thiazole-7-carbonyl)-2-azaspiro[3.3]heptan-6-yl(4-(trifluoromethoxy)pyridin-2-yl)carbamate] | < 5 nM | < 5 nM
10 | O=C(Nc1cncc(C(F)(F)F)c1)OC1CC2(C1)CN(C(=O)c1cnn3ccsc13)C2 [Example 273, 2-(pyrazolo[5,1-b]thiazole-7-carbonyl)-2-azaspiro[3.3]heptan-6-yl(5-(trifluoromethyl)pyridin-3-yl)carbamate] | < 5 nM | < 5 nM
11 | Cn1ccn2ncc(C(=O)N3CC4(CC(CC(=O)Nc5cncc(C(F)(F)F)c5)C4)C3)c12 [Example 274, 2-(2-(1-methyl-1H-imidazo[1,2-b]pyrazole-7-carbonyl)-2-azaspiro[3.3]heptan-6-yl)-N-(5-(trifluoromethyl)pyridin-3-yl)acetamide] | < 5 nM | 5 to 25 nM
12 | O=C(CC1CC2(C1)CN(C(=O)c1cnn3ccsc13)C2)Nc1cncc(OC(F)(F)F)c1 [Example 275, 2-(2-(pyrazolo[5,1-b]thiazole-7-carbonyl)-2-azaspiro[3.3]heptan-6-yl)-N-(5-(trifluoromethoxy)pyridin-3-yl)acetamide] | < 5 nM | < 5 nM
13 | Cn1ccn2ncc(C(=O)N3CC4(CC(CC(=O)Nc5cc(OC(F)(F)F)ccc5F)C4)C3)c12 [Example 276, N-(2-fluoro-5-(trifluoromethoxy)phenyl)-2-(2-(1-methyl-1H-imidazo[1,2-b]pyrazole-7-carbonyl)-2-azaspiro[3.3]heptan-6-yl)acetamide] | < 5 nM | < 5 nM
14 | Cn1ccn2ncc(C(=O)N3CC4(CC(CC(=O)Nc5cc(OC(F)(F)F)ccn5)C4)C3)c12 [Example 277, 2-(2-(1-methyl-1H-imidazo[1,2-b]pyrazole-7-carbonyl)-2-azaspiro[3.3]heptan-6-yl)-N-(4-(trifluoromethoxy)pyridin-2-yl)acetamide] | < 5 nM | 5 to 25 nM
15 | Cc1ccc(OC(F)(F)F)cc1NC(=O)CC1CC2(C1)CN(C(=O)c1cnn3ccn(C)c13)C2 [Example 278, 2-(2-(1-methyl-1H-imidazo[1,2-b]pyrazole-7-carbonyl)-2-azaspiro[3.3]heptan-6-yl)-N-(2-methyl-5-(trifluoro-methoxy)phenyl)acetamide] | < 5 nM | 5 to 25 nM

Now from value to molecule:

Row | Ki (DDR1) | Ki (DDR2) | SMILES
16 | < 5 nM | < 5 nM | Cn1ccn2ncc(C(=O)N3CC4(CC(CC(=O)Nc5cc(C(F)(F)F)ccn5)C4)C3)c12 [Example 279, 2-(2-(1-methyl-1H-imidazo[1,2-b]pyrazole-7-carbonyl)-2-azaspiro[3.3]hepan-6-yl)-N-(4-(trifluoromethyl)pyridin-2-yl)acetamide]
17 | < 5 nM | < 5 nM | Cc1ccc(OC(F)(F)F)cc1NC(=O)N(C)C1CC2(C1)CN(C(=O)c1ncnc3ccsc13)C2 [Example 280, 1-methyl-3-(2-methyl-5-(trifluoromethoxy)phenyl)-1-(2-(thieno[3,2-d]pyrimidine-4-carbonyl)-2-azaspiro[3.3]heptan-6-yl)urea]
18 | < 5 nM | 5 to 25 nM | Cc1cc(NC(=O)N(C)C2CC3(C2)CN(C(=O)c2cnn4ccn(C)c24)C3)cc(OC(F)(F)F)c1 [Example 281, 1-methyl-1-(2-(1-methyl-1H-imidazo[1,2-b]pyrazole-7-carbonyl)-2-azaspiro[3.3]heptan-6-yl)-3-(3-methyl-5-(trifluoromethoxy)phenyl)urea]
19 | < 5 nM | < 5 nM | CCc1ccc(C(F)(F)F)cc1NC(=O)NC1CC2(C1)CN(C(=O)c1cnn3ccn(C)c13)C2 [Example 282, 1-(2-ethyl-5-(trifluoromethyl)phenyl)-3-(2-(1-methyl-1H-imidazo[1,2-b]pyrazole-7-carbonyl)-2-azaspiro[3.3]heptan-6-yl)urea]
20 | < 5 nM | 5 to 25 nM | Cc1c(F)cc(C(F)(F)F)cc1NC(=O)N(C)C1CC2(C1)CN(C(=O)c1cnn3ccn(C)c13)C2 [Example 283, 3-(3-fluoro-2-methyl-5-(trifluoromethyl)phenyl)-1-methyl-1-(2-(1-methyl-1H-imidazo[1,2-b]pyrazole-7-carbonyl)-2-azaspiro[3.3]heptan-6-yl)urea]
21 | < 5 nM | 5 to 25 nM | CN(C(=O)Nc1cc(C#N)cc(C(F)(F)F)c1)C1CC2(C1)CN(C(=O)c1ncnc3[nH]ccc13)C2 [Example 284, 1-(2-(7H-pyrrolo[2,3-d]pyrimidine-4-carbonyl)-2-azaspiro[3.3]heptan-6-yl)-3-(3-cyano-5-(trifluoromethyl)phenyl)-1-methylurea]
22 | < 5 nM | < 5 nM | CN(C(=O)Nc1cc(C(F)(F)F)ccc1Cl)C1CC2(C1)CN(C(=O)c1ncnc3[nH]ccc13)C2 [Example 285, 1-(2-(7H-pyrrolo[2,3-d]pyrimidine-4-carbonyl)-2-azaspiro[3.3]heptan-6-yl)-3-(2-chloro-5-(trifluoromethyl)phenyl)-1-methylurea]
23 | < 5 nM | 5 to 25 nM | CN(C(=O)Nc1cc(Cl)cc(C(F)(F)F)c1)C1CC2(C1)CN(C(=O)c1ncnc3[nH]ccc13)C2 [Example 286, 1-(2-(7H-pyrrolo[2,3-d]pyrimidine-4-carbonyl)-2-azaspiro[3.3]heptan-6-yl)-3-(3-chloro-5-(trifluoromethyl)phenyl)-1-methylurea]
